The results in this text go back to US20190031615A1, “3-ETHYL-3-PHENYLAZEPANE DERIVATIVES HAVING MULTIMODAL ACTIVITY AGAINST PAIN” (LABORATORIOS DEL DR. ESTEVE S.A., priority 2016, published 2019).

A word on the Ki: it is the dissociation constant of the complex between target and ligand, obtained from inhibition or displacement.

SMILES strings stand for the structures. Where only a bound is given, the exact number is not on record here.

The target in the experiment is σ1 receptor and μ-opioid receptor. Kind of experiment: Human σ1 receptor and human μ-opioid receptor radioligand assays (dual binding scale). Details: key to μ and σ1 dual binding: +: Both Ki-μ and Ki-σ1>=500 nM; ++: One Ki <500 nM while the other Ki is >=500 nM; +++: Both Ki-μ and Ki-σ1 <500 nM; ++++: Both Ki-μ and Ki-σ1 <100 nM. The following applies: joint class for both Ki; σ1: [3H](+)-pentazocine, transfected HEK-293 membranes; μ: [3H]-DAMGO, transfected CHO-K1 cell membranes. How it is done: To investigate binding properties of test compounds to human […] receptor, transfected HEK-293 membranes and [^3H](+)-pentazocine (Perkin Elmer, NET-1056), as the radioligand, were used. The assay was carried out with 7 μg of membrane suspension, 5 nM of [^3H](+)-pentazocine in either absence or presence of either buffer or 10 μM Haloperidol for total and non-specific binding, respectively. Binding buffer contained Tris-HCl 50 mM at pH 8. Plates were incubated at 37° C. for 120 minutes. After the incubation period, the reaction mix was then transferred to MultiScreen HTS, FC plates (Millipore), filtered and plates were washed 3 times with ice-cold 10 mM Tris-HCL (pH7.4). Filters were dried and counted at approximately 40% efficiency in a MicroBeta scintillation counter (Perkin-Elmer) using EcoScint liquid scintillation cocktail
To investigate binding properties of test compounds to human μ-opioid receptor, transfected CHO-K1 cell membranes and [^3H]-DAMGO (Perkin Elmer, ES-542-C), as the radioligand, were used. The assay was carried out with 20 μg of membrane suspension, 1 nM of [^3H]-DAMGO in either absence or presence of either buffer or 10 μM Naloxone for total and non-specific binding, respectively. Binding buffer contained Tris-HCl 50 mM, MgCl2 5 mM at pH 7.4. Plates were incubated at 27° C. for 60 minutes. After the incubation period, the reaction mix was then transferred to MultiScreen HTS, FC plates (Millipore), filtered and plates were washed 3 times with ice-cold 10 mM Tris-HCL (pH 7.4). Filters were dried and counted at approximately 40% efficiency in a MicroBeta scintillation counter (Perkin-Elmer) using EcoScint liquid scintillation cocktail.

Molecule `CCC1(c2cccc(OC)c2)CCCCN(CCN2CCN(C)CC2)C1` (stereo not shown) [Example 1, 3-Ethyl-3-(3-methoxyphenyl)-1-(2-(4-methylpiperazin-1-yl)ethyl)azepane] displayed an inhibition constant Ki of at least 500 nM.
Same read-out and setting: next, `CCOCCN1CCCCC(CC)(c2cccc(O)c2)C1` (stereo not shown) [Example 11, 3-(1-(2-Ethoxyethyl)-3-ethylazepan-3-yl)phenol]: below 100 nM.
In the case of `CCOCCN1CCCC[C@](CC)(c2cccc(O)c2)C1` (stereo in doubt) [Example 21, (R)-3-(1-(2-ethoxyethyl)-3-ethylazepan-3-yl)phenol], the “μ and σ1 dual binding” value is recorded as “++”.
Still for that read-out and setting: next, `CCC1(c2cccc(O)c2)CCCCN(CCOc2cccnc2)C1` (stereo not shown) [Example 14, 3-(3-ethyl-1-(2-(pyridin-3-yloxy)ethyl)azepan-3-yl)phenol]: “++”.
`CCOCCN1CCCCC(CC)(c2cccc(N)c2)C1` (stereo not shown) [Example 22, 3-[1-(2-Ethoxyethyl)-3-ethylazepan-3-yl]aniline]: the Ki is at least 500 nM.
The same measure, in the same setting: next, `CCC1(c2cccc(O)c2)CCCCN(CCN2CCCCC2)C1` (stereo not shown) [Example 9, 3-(3-ethyl-1-(2-(piperidin-1-yl)ethyl)azepan-3-yl)phenol]: below 500 nM.
On the same count and under the same terms, next, `CCC1(c2cccc(OC)c2)CCCCN(CCN2CCCCC2)C1` (stereo not shown) [Example 4, 3-ethyl-3-(3-methoxyphenyl)-1-(2-(piperidin-1-yl)ethyl)azepane]: at least 500 nM.
Consider `CCC1(c2cccc(O)c2)CCCCN(CCN2CCN(c3ccccc3)CC2)C1` (stereo not shown) [Example 7, 3-(3-ethyl-1-(2-(4-phenylpiperazin-1-yl)ethyl)azepan-3-yl)phenol], for which the “μ and σ1 dual binding” value is listed as “++”.
Still for that read-out and setting: next, `CCOCCN1CCCC[C@@](CC)(c2cccc(O)c2)C1` (stereo in doubt) [Example 20, (S)-3-(1-(2-ethoxyethyl)-3-ethylazepan-3-yl)phenol]: “++”.
In turn, `CCOCCN1CCCCC(CC)(c2cccc(OC)c2)C1` (stereo not shown) [Example 5, 1-(2-ethoxyethyl)-3-ethyl-3-(3-methoxyphenyl)azepane] had a Ki of at least 500 nM.
On to `CCC1(c2cccc(O)c2)CCCCN(CCOC)C1` (stereo not shown) [Example 17, 3-(3-ethyl-1-(2-methoxyethyl)azepan-3-yl)phenol], for which the “μ and σ1 dual binding” value is “++”.
Consider `CCOCCN1CCCCC(CC)(c2cccc(NS(=O)(=O)C(C)C)c2)C1` (stereo not shown) [Example 24, N-{3-[1-(2-Ethoxyethyl)-3-ethylazepan-3-yl]phenyl}propane-2-sulfonamide], for which the Ki is at least 500 nM.
Regarding `CCC1(c2cccc(O)c2)CCCCN(CCOC2CC2)C1` (stereo not shown) [Example 18, 3-(1-(2-cyclopropoxyethyl)-3-ethylazepan-3-yl)phenol], the “μ and σ1 dual binding” value is “++”.
Still for that read-out and setting: next, `CCC1(c2cccc(O)c2)CCCCN(CCO)C1` (stereo not shown) [Example 10, 3-(3-ethyl-1-(2-hydroxyethyl)azepan-3-yl)phenol]: “++”.
`CCOCCN1CCCCC(CC)(c2cccc(NS(C)(=O)=O)c2)C1` (stereo not shown) [Example 23, N-{3-[1-(2-Ethoxyethyl)-3-ethylazepan-3-yl]phenyl}methanesulfonamide] came in with a Ki of at least 500 nM.
With `CCC1(c2cccc(O)c2)CCCCN(CCN2CCN(C)CC2)C1` (stereo not shown) [Example 6, 3-(3-Ethyl-1-(2-(4-methylpiperazin-1-yl)ethyl)azepan-3-yl)phenol], the “μ and σ1 dual binding” value was “++”.
Turning to `CCC1(c2cccc(OC)c2)CCCCN(CCN2CCOCC2)C1` (stereo not shown) [Example 3, 4-(2-(3-Ethyl-3-(3-methoxyphenyl)azepan-1-yl)ethyl)morpholine], the Ki was at least 500 nM.
Take `CCC1(c2cccc(O)c2)CCCCN(CCOCC(C)(C)O)C1` (stereo not shown) [Example 19, 3-(3-ethyl-1-(2-(2-hydroxy-2-methylpropoxy)ethyl)azepan-3-yl)phenol]: the “μ and σ1 dual binding” value is “++”.
Still for that read-out and setting: next, `CCC1(c2cccc(O)c2)CCCCN(CCN2CCOCC2)C1` (stereo not shown) [Example 8, 3-(3-ethyl-1-(2-morpholinoethyl)azepan-3-yl)phenol]: “++”.
The molecule `CCC1(c2cccc(O)c2)CCCCN(CC(=O)N2CCOCC2)C1` (stereo not shown) [Example 16, 2-(3-ethyl-3-(3-hydroxyphenyl)azepan-1-yl)-1-morpholinoethanone] returned a Ki of at least 500 nM.
The same measure, in the same setting: next, `CCC1(c2cccc(O)c2)CCCCN(CCOC(C)C)C1` (stereo not shown) [Example 12, 3-(3-ethyl-1-(2-isopropoxyethyl)azepan-3-yl)phenol]: below 500 nM.
On to `CCC1(c2cccc(O)c2)CCCCN(CC(=O)N2CCCCC2)C1` (stereo not shown) [Example 13, 2-(3-ethyl-3-(3-hydroxyphenyl)azepan-1-yl)-1-(piperidin-1-yl)ethanone], for which the “μ and σ1 dual binding” value is given as “++”.
